Source: patent US8598342B2, “Methods and compounds for antimicrobial intervention” (President and Fellows of Harvard College, priority 2008, dated 2013)
“Also recorded” adds a separate entry of the source. Read-outs that look alike come from different tables or passages of the source.

What was measured:
[1] = tested on: S. aureus RN4220 invasion of human corneal epithelial cells (HCEC); assay: Human corneal epithelial cell (HCEC) invasion / internalization model; format: cell-based, Staphylococcus aureus; conditions: wildtype S. aureus grown with 8×MIC (20 μg/mL) of targocil
Experimental: An overnight culture of S. aureus RN4220 and its isogenic ΔtarO strain were grown with shaking at 37° C. in either 1% DMSO or in the presence of 8×MIC (20 μg/mL) of targocil 1% DMSO. Human corneal epithelial cells (HCEC) were cultured separately in 24-well plates. Prior to incubation with HCEC, the bacteria were washed twice with keratinocyte culture media—serum free (KBM-SFM) including 8×MIC of targocil in 1% DMSO or 1% DMSO. The S. aureus strains (approximately 10^8 CFU in 1 mL of KBM-SFM including either 8×MIC of targocil 1% DMSO or 1% DMSO) were then applied to the HCEC monolayers. (The initial inoculum of each group was determined by serial dilution and plate counting.) Following incubation at 37° C. for 1 h, bacteria were removed and the monolayers were washed twice with Hank's balanced salt solution (HBSS), and covered with 1 mL of KBM-SFM containing gentamycin (100 μg/mL) and incubated at 37° C. for 1 h to kill residual extracellular bacteria. The monolayers were washed twice with HBSS, lysed, and homogenized in 1 mL of lysis solution (0.25% trypsin-0.025% Triton X-100). Lysates were serially diluted and plated on brain-heart infusion agar, and colonies were enumerated following overnight incubation at 37° C.
The data workup was done by first determining the percentage of internalized bacteria compared to the initial inoculum. […]

[2] = tested on: wildtype S. aureus RN4220; assay: MIC / growth inhibition of wildtype S. aureus RN4220 (optical density); format: cell-based; conditions: Staphylococcus aureus
Experimental: (§1) (A) Targocil MIC data for a panel of Gram-positive strains, including MRSA clinical isolates B5271 and 5340A. Growth was monitored in triplicate after 12 h at 28° C. using optical density. (B) Two dimensional drug interaction analysis between tunicamycin and targocil grown for 18 h at 30° C. […] At higher concentrations, tunicamycin is toxic because it inhibits cell wall biosynthesis. […] Varying concentrations of drug were added to […] of S. aureus RN4220 after 5 h and cell count was monitored over time at 30° C. […] Cells were grown at 28° C. for 12 h and monitored for growth using optical density (OD600). Data were normalized to the DMSO controls for each strain. (E) Two classes of mutants were examined: phage resistant (m1 3) and phage sensitive (m4-5).
A library of 55,000 small molecules was screened in duplicate at a concentration of ˜40 μM against S. aureus RN4220 and the corresponding ΔtarO strain using optical density to monitor growth. We obtained 45 initial hits and confirmed three lead compounds that inhibited the growth of the wildtype strain but had no activity against the ΔtarO strain. […] (FIG. 16A and FIG. 18) (Lazarevic V, Abellan F X, Moller S B, Karamata D, & Mauel C (2002) Microbiology-Sgm 148:815-824)
On the night before screening, a single colony of each strain was grown in TSB (Cm 10). On the day of screening, 384 well plates (Corning® 3710) were filled with […] of TSB (Cm 10). […]
The following day the plates were read using a Perkin Elmer Envision plate reader for both OD600 and fluorescence at the appropriate wavelength for Gfp ([…]) and Mcherry ([…]). Data were collected and analyzed to identify compounds that killed the wildtype strain but not the ΔtanO mutant. […]
For a secondary screen, hits from the primary screen were evaluated against wildtype and the ΔtarO mutant as described above, but the compound was investigated using a four point dose-response curve starting at a concentration of 50 μM and doing two-fold serial dilutions. […]

[3] = tested on: S. aureus strains, including five MRSA strains; assay: In vitro MIC against a panel of S. aureus strains including MRSA; format: cell-based, Staphylococcus aureus
Experimental: as §1
(G. Bou, (2007) Methods Mol Biol 391, 29)

[4] = tested on: S. aureus RN4220 TarG:W73C (m5); assay: MIC analysis of RN4220 carrying the mutant tarG allele TarG:W73C; format: cell-based, Staphylococcus aureus; conditions: mutant allele exchanged into RN4220
Text: Therefore, we conclude that TarG is a target of targocil. […] (Davidson A L, Dassa E, Orelle C, & Chen J (2008) Microbiology and Molecular Biology Reviews 72:317-364) In addition to functioning as antibiotics, inhibitors such as targocil, and derivatives thereof, could be valuable tools for mechanistic and structural analyses of ABC transporters.

For `CCN(CC)c1nc2c(S(=O)(=O)c3ccccc3)nnn2c2ccc(Cl)cc12` [7-chloro-N,N-diethyl-3-(phenylsulfonyl)-[1,2,3]triazolo[1,5-a]quinazolin-5-amine], the “invasion of HCECs by targocil-treated bacteria” value [1] was “behaved similarly to the ΔtarO strain”, the MIC ([2]; read-out: minimum inhibitory concentration (MIC)) was 1.3 µg/mL and the MIC ([2]; result of the WTA inhibitor screen, read-out: minimum inhibitory concentration) was about 3 µM. For the same molecule, the MIC ([2]; wildtype S. aureus RN4220, read-out: minimum inhibitory concentration (MIC)) was 3 µM, the “effectiveness against strains of S. aureus” value ([3]; RN4220, RN450, Newman strain, Wood strain) was “effective against numerous strains of S. aureus” and the “in vitro MIC values against all tested S. aureus strains” value ([3]; including five MRSA strains) was “low μg/mL range”. The “species selectivity of antibiotic activity” value ([3]; panel of Gram-positive strains) was “selective for S. aureus” and the “resistance to targocil of TarG:W73C strain” value [4] was “fully resistant; also recorded: confer resistance”.
